Data as given in US12077503B2, “Substituted cyclic amides and their use as herbicides” (FMC CORPORATION, priority 2015, dated 2024).

Key:
Assay type in all cases: in vivo
[1] = tested on: giant foxtail (Setaria faberi); assay: Test G Post-Emergence Protocol; settings: Setaria faberi, post-emergence, 312 h; for pest or weed control at 15.625 g/ha: 15.625 g ai/ha, evaluated after 13 days (100=total damage to plant; 0=no damage to plant), read-out: Foxtail, Giant damage rating; for pest or weed control at 62.5 g/ha: 62.5 g ai/ha, read-out: Foxtail, Giant damage rating (100=total damage to plant; 0=no damage to plant); for pest or weed control at 62.5 g/ha / pest or weed control at 250 g/ha: evaluated after 13 days; for pest or weed control at 250 g/ha: 250 g ai/ha, read-out: damage to plant, Foxtail, Giant (100=total damage to plant; 0=no damage to plant)
How it was run: (§1)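 Foliar application was made 8 days after sowing, using an aqueous spray of the active in acetone/water (50:50) with 0.5% Tween 20, at doses of 15.625, 62.5 or 250 g/ha. Injury was assessed 13 days later, where 100 meant the plant was fully damaged.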

[2] = tested on: redroot pigweed (Amaranthus retroflexus); assay: Test G Post-Emergence Protocol; settings: Amaranthus retroflexus, post-emergence, 312 h; for pest or weed control at 15.625 g/ha: 15.625 g ai/ha, evaluated after 13 days (100=total damage to plant; 0=no damage to plant), read-out: Pigweed, Redroot damage rating; for pest or weed control at 62.5 g/ha: 62.5 g ai/ha, read-out: Pigweed, Redroot damage rating (100=total damage to plant; 0=no damage to plant); for pest or weed control at 62.5 g/ha / pest or weed control at 250 g/ha: evaluated after 13 days; for pest or weed control at 250 g/ha: 250 g ai/ha, read-out: damage to plant, Pigweed, Redroot (100=total damage to plant; 0=no damage to plant)
How it was run: as §1

[3] = tested on: velvetleaf (Abutilon theophrasti); assay: Test G Post-Emergence Protocol; settings: Abutilon theophrasti, post-emergence, 312 h; for pest or weed control at 15.625 g/ha: 15.625 g ai/ha, evaluated after 13 days (100=total damage to plant; 0=no damage to plant), read-out: Velvetleaf damage rating; for pest or weed control at 62.5 g/ha: 62.5 g ai/ha, read-out: Velvetleaf damage rating (100=total damage to plant; 0=no damage to plant); for pest or weed control at 62.5 g/ha / pest or weed control at 250 g/ha: evaluated after 13 days; for pest or weed control at 250 g/ha: 250 g ai/ha, read-out: damage to plant, Velvetleaf (100=total damage to plant; 0=no damage to plant)
How it was run: as §1

[4] = tested on: ivy-leaved morning glory (Ipomoea hederacea); assay: Test G Post-Emergence Protocol; settings: Ipomoea, post-emergence, 312 h; for pest or weed control at 15.625 g/ha: 15.625 g ai/ha, evaluated after 13 days (100=total damage to plant; 0=no damage to plant), read-out: Morningglory, Ivy-leaved damage rating; for pest or weed control at 62.5 g/ha: 62.5 g ai/ha, read-out: Morningglory, Ivy-leaved damage rating (100=total damage to plant; 0=no damage to plant); for pest or weed control at 62.5 g/ha / pest or weed control at 250 g/ha: evaluated after 13 days; for pest or weed control at 250 g/ha: 250 g ai/ha, read-out: damage to plant, Morningglory, Ivy-leaved (100=total damage to plant; 0=no damage to plant)
How it was run: as §1

corn (Zea mays) [5] = assay: Test G Post-Emergence Protocol; settings: Zea mays, post-emergence, 312 h; for plant injury at 15.625 g/ha: 15.625 g ai/ha, evaluated after 13 days (100=total damage to plant; 0=no damage to plant), read-out: Corn damage rating; for plant injury at 62.5 g/ha: 62.5 g ai/ha, read-out: Corn damage rating (100=total damage to plant; 0=no damage to plant); for plant injury at 62.5 g/ha / plant injury at 250 g/ha: evaluated after 13 days; for plant injury at 250 g/ha: 250 g ai/ha, read-out: damage to plant, Corn (100=total damage to plant; 0=no damage to plant)
How it was run: as §1

[6] = tested on: barnyardgrass (Echinochloa crus-galli); assay: Test G Post-Emergence Protocol; settings: Echinochloa crus-galli, post-emergence, 312 h; for pest or weed control at 15.625 g/ha: 15.625 g ai/ha, evaluated after 13 days (100=total damage to plant; 0=no damage to plant), read-out: Barnyardgrass damage rating; for pest or weed control at 62.5 g/ha: 62.5 g ai/ha, read-out: Barnyardgrass damage rating (100=total damage to plant; 0=no damage to plant); for pest or weed control at 62.5 g/ha / pest or weed control at 250 g/ha: evaluated after 13 days; for pest or weed control at 250 g/ha: 250 g ai/ha, read-out: damage to plant, Barnyardgrass (100=total damage to plant; 0=no damage to plant)
How it was run: as §1

[7] = tested on: giant foxtail (Setaria faberi); assay: Test G Pre-Emergence Protocol; settings: Setaria faberi, pre-emergence, 312 h, evaluated after 13 days; for pest or weed control at 15.625 g/ha: 15.625 g ai/ha; for pest or weed control at 15.625 g/ha / pest or weed control at 250 g/ha: read-out: Foxtail, Giant damage rating (100=total damage to plant; 0=no damage to plant); for pest or weed control at 62.5 g/ha: 62.5 g ai/ha, 100=total damage to plant, 0=no damage to plant, read-out: plant damage rating, Foxtail, Giant; for pest or weed control at 250 g/ha: 250 g ai/ha
How it was run: (§2)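 Test compound in 0.5% Tween 20 acetone/water (50:50) was applied at three rates (15.625, 62.5, 250 g/ha) to soil sown one day earlier. After 13 days plants were scored for injury, where 0 means unaffected and 100 means completely damaged.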

[8] = tested on: redroot pigweed (Amaranthus retroflexus); assay: Test G Pre-Emergence Protocol; settings: Amaranthus retroflexus, pre-emergence, 312 h, evaluated after 13 days; for pest or weed control at 15.625 g/ha: 15.625 g ai/ha; for pest or weed control at 15.625 g/ha / pest or weed control at 250 g/ha: read-out: Pigweed, Redroot damage rating (100=total damage to plant; 0=no damage to plant); for pest or weed control at 62.5 g/ha: 62.5 g ai/ha, 100=total damage to plant, 0=no damage to plant, read-out: plant damage rating, Pigweed, Redroot; for pest or weed control at 250 g/ha: 250 g ai/ha
How it was run: as §2

[9] = tested on: velvetleaf (Abutilon theophrasti); assay: Test G Pre-Emergence Protocol; settings: Abutilon theophrasti, pre-emergence, 312 h, evaluated after 13 days; for pest or weed control at 15.625 g/ha: 15.625 g ai/ha; for pest or weed control at 15.625 g/ha / pest or weed control at 250 g/ha: read-out: Velvetleaf damage rating (100=total damage to plant; 0=no damage to plant); for pest or weed control at 62.5 g/ha: 62.5 g ai/ha, 100=total damage to plant, 0=no damage to plant, read-out: plant damage rating, Velvetleaf; for pest or weed control at 250 g/ha: 250 g ai/ha
How it was run: as §2

[10] = tested on: ivy-leaved morning glory (Ipomoea hederacea); assay: Test G Pre-Emergence Protocol; settings: Ipomoea, pre-emergence, 312 h, evaluated after 13 days; for pest or weed control at 15.625 g/ha: 15.625 g ai/ha, read-out: Morning-glory, Ivy-leaved damage rating (100=total damage to plant; 0=no damage to plant); for pest or weed control at 62.5 g/ha: 62.5 g ai/ha, 100=total damage to plant, 0=no damage to plant, read-out: plant damage rating, Morningglory, Ivy-leaved; for pest or weed control at 250 g/ha: 250 g ai/ha, read-out: Morningglory, Ivy-leaved damage rating (100=total damage to plant; 0=no damage to plant)
How it was run: as §2

corn (Zea mays) [11] = assay: Test G Pre-Emergence Protocol; settings: Zea mays, pre-emergence, 312 h, evaluated after 13 days; for plant injury at 15.625 g/ha: 15.625 g ai/ha; for plant injury at 15.625 g/ha / plant injury at 250 g/ha: read-out: Corn damage rating (100=total damage to plant; 0=no damage to plant); for plant injury at 62.5 g/ha: 62.5 g ai/ha, 100=total damage to plant, 0=no damage to plant, read-out: plant damage rating, Corn; for plant injury at 250 g/ha: 250 g ai/ha
How it was run: as §2

[12] = tested on: barnyardgrass (Echinochloa crus-galli); assay: Test G Pre-Emergence Protocol; settings: Echinochloa crus-galli, pre-emergence, 312 h, evaluated after 13 days; for pest or weed control at 15.625 g/ha: 15.625 g ai/ha, read-out: Barnyard grass damage rating (100=total damage to plant; 0=no damage to plant); for pest or weed control at 62.5 g/ha: 62.5 g ai/ha, 100=total damage to plant, 0=no damage to plant, read-out: plant damage rating, Barnyardgrass; for pest or weed control at 250 g/ha: 250 g ai/ha, read-out: Barnyardgrass damage rating (100=total damage to plant; 0=no damage to plant)
How it was run: as §2

Structure (SMILES) | pest or weed control at 15.625 g/ha [1] [%] | pest or weed control at 62.5 g/ha [1] [%] | pest or weed control at 250 g/ha [1] [%] | pest or weed control at 15.625 g/ha [2] [%] | pest or weed control at 62.5 g/ha [2] [%] | pest or weed control at 250 g/ha [2] [%] | pest or weed control at 15.625 g/ha [3] [%] | pest or weed control at 62.5 g/ha [3] [%] | pest or weed control at 250 g/ha [3] [%] | pest or weed control at 15.625 g/ha [4] [%] | pest or weed control at 62.5 g/ha [4] [%] | pest or weed control at 250 g/ha [4] [%] | plant injury at 15.625 g/ha (corn (Zea mays) [5]) [%] | plant injury at 62.5 g/ha (corn (Zea mays) [5]) [%] | plant injury at 250 g/ha (corn (Zea mays) [5]) [%] | pest or weed control at 15.625 g/ha [6] [%] | pest or weed control at 62.5 g/ha [6] [%] | pest or weed control at 250 g/ha [6] [%] | pest or weed control at 15.625 g/ha [7] [%] | pest or weed control at 62.5 g/ha [7] [%] | also measured
C=CCc1c(Cl)cccc1NC(=O)[C@H]1C(=O)N(C)C[C@@H]1c1ccc(C(F)(F)F)cc1 (racemic) [Compound 1440] | 0 | 20 | 60 | 0 | 10 | 20 | 0 | 0 | 0 | 0 | 0 | 10 | 0 | 10 | 20 | 0 | 0 | 10 | 0 | 50 | pest or weed control at 250 g/ha [7]: 80%; pest or weed control at 15.625 g/ha [8]: 0%; pest or weed control at 62.5 g/ha [8]: 0%; pest or weed control at 250 g/ha [8]: 0%; pest or weed control at 15.625 g/ha [9]: 0%; pest or weed control at 62.5 g/ha [9]: 0%; pest or weed control at 250 g/ha [9]: 0%; pest or weed control at 15.625 g/ha [10]: 0%; pest or weed control at 62.5 g/ha [10]: 0%; pest or weed control at 250 g/ha [10]: 0%; plant injury at 15.625 g/ha (corn (Zea mays) [11]): 0%; plant injury at 62.5 g/ha (corn (Zea mays) [11]): 0%; plant injury at 250 g/ha (corn (Zea mays) [11]): 0%; pest or weed control at 15.625 g/ha [12]: 0%; pest or weed control at 62.5 g/ha [12]: 10%; pest or weed control at 250 g/ha [12]: 40%
C=CCc1ccc(Cl)cc1NC(=O)[C@H]1C(=O)N(C)C[C@@H]1c1ccc(C(F)(F)F)cc1 (racemic) [Compound 1441] | 0 | 0 | 20 | 0 | 0 | 0 | 0 | 0 | 0 | 0 | 0 | 0 | 0 | 0 | 20 | 0 | 0 | 0 | 0 | 0 | pest or weed control at 250 g/ha [7]: 0%; pest or weed control at 15.625 g/ha [8]: 0%; pest or weed control at 62.5 g/ha [8]: 0%; pest or weed control at 250 g/ha [8]: 0%; pest or weed control at 15.625 g/ha [9]: 0%; pest or weed control at 62.5 g/ha [9]: 0%; pest or weed control at 250 g/ha [9]: 0%; pest or weed control at 15.625 g/ha [10]: 0%; pest or weed control at 62.5 g/ha [10]: 0%; pest or weed control at 250 g/ha [10]: 0%; plant injury at 15.625 g/ha (corn (Zea mays) [11]): 0%; plant injury at 62.5 g/ha (corn (Zea mays) [11]): 0%; plant injury at 250 g/ha (corn (Zea mays) [11]): 0%; pest or weed control at 15.625 g/ha [12]: 0%; pest or weed control at 62.5 g/ha [12]: 0%; pest or weed control at 250 g/ha [12]: 0%
COc1cccc(NC(=O)[C@H]2C(=O)N(C)C[C@@H]2c2ccc(C(F)(F)F)cc2)c1C (racemic) [Compound 1446] | 0 | 0 | 0 | 0 | 0 | 0 | 0 | 0 | 0 | 0 | 0 | 0 | 0 | 0 | 0 | 0 | 0 | 0 | 0 | 0 | pest or weed control at 250 g/ha [7]: 40%; pest or weed control at 15.625 g/ha [8]: 0%; pest or weed control at 62.5 g/ha [8]: 0%; pest or weed control at 250 g/ha [8]: 0%; pest or weed control at 15.625 g/ha [9]: 0%; pest or weed control at 62.5 g/ha [9]: 0%; pest or weed control at 250 g/ha [9]: 0%; pest or weed control at 15.625 g/ha [10]: 0%; pest or weed control at 62.5 g/ha [10]: 0%; pest or weed control at 250 g/ha [10]: 0%; plant injury at 15.625 g/ha (corn (Zea mays) [11]): 0%; plant injury at 62.5 g/ha (corn (Zea mays) [11]): 0%; plant injury at 250 g/ha (corn (Zea mays) [11]): 0%; pest or weed control at 15.625 g/ha [12]: 0%; pest or weed control at 62.5 g/ha [12]: 0%; pest or weed control at 250 g/ha [12]: 0%
